Measured values published in US4871527A, “No-carrier-added [^18 F]-N-fluoroalkylspiroperidols” (The United States of America as represented by the United …, priority 1987, dated 1989).
“Also recorded” adds a separate entry of the source. Like-named read-outs stand apart in the source and are kept apart here.

What was measured:
[1] = Tissue distribution of NCA N-(3-[^18 F]fluoropropyl)spiroperidol in mice after butaclamol pretreatment; assay type: in vivo, female albino mice (BNL strain)
Method: Tissue Distribution of NCA N-(3-[^ 18 F]fluoropropyl)spiroperidol in Mice
Female albino mice (BNL strain), 22-27 g, were injected in a lateral tail vein with 24-85 μCi of N-(3-[^18 F]fluoropropyl)spiroperidol in 100 μl of isotonic saline solution.
Mice were pretreated with 2 mg/kg, i.v., of either (-)butaclamol (-), or
(+)butaclamol (+). The mice were killed by cervical dislocation and
decapitation at 5, 60 and 120 min after injection. The dissected tissues
were blotted to remove adhering blood and placed in tared counting vials.
A sample of blood was obtained from the trunk immediately after
decapitation. The entire tail was counted to verify the patency of the
tail vein injection. All samples were counted and weighed, and the
activity expressed as percent of injected dose per organ or percent of
injected dose per gram of tissue.

[2] = Metabolic stability of N-(3-[^18 F]fluoropropyl)spiroperidol in mouse brains; assay type: in vivo, female albino mice (BNL strain); conditions: for Percent Recovery of Total ^18 F Applied to C-18 Sep-Pak, H2O Eluate / Percent Recovery of Total ^18 F Applied to C-18 Sep-Pak, MeOH Eluate / Percent Recovery of Total ^18 F Applied to C-18 Sep-Pak, NaOH Eluate / Percent of ^18 F in MeOH as N-(3-[^18 F]fluoropropyl)spiroperidol / remaining at 1 h: 1 hr; for remaining at 1 h: mouse, brain, iv, read-out: Percent of Unchanged N-(3-[^18 F]fluoropropyl)spiroperidol
Method: Metabolic Stability of N-(3-[^18 F]fluoropropyl)spiroperidol in Mouse Brains
Three female albino mice (BNL strain), 27-30 g, were injected in a lateral tail vein with […] of N-(3-[^18 F]fluoropropyl)spiroperidol in 100 μl of isotonic saline solution. At 1 hr after injection, the mice were killed by cervical dislocation. The brain was rapidly removed, homogenized either in a mixture of 2 ml of CH3 OH and 4 ml of 0.4M HClO4, or in 2 ml of CH3 OH alone. The samples were centrifuged,and the CH3 OH fractions (or the entire supernants in the case of CH3 OH alone) were analyzed for unchanged N-(3-[^18 F]fluoropropyl)spiroperidol [Arnett et al., Life Sci., 36, 1359-1366 (1985)] and analyzed by HPLC (C18 column, 4.5×250 mm, CH3 OH:0.2N NH4 CO2 H (90:10), 1.5 ml/min).
^a The precipitates were separated without further washings.
^b The precipitates were separated and washed with MeOH--HClO4

[3] = Baboon plasma analyses: blood kinetics and metabolism; assay type: in vivo, baboon (Papio anubis)
Method: Baboon Plasma Analyses: Blood was sampled from the femoral artery at initial intervals of 5 sec. Aliquots of plasma were counted to determine the total plasma radioactivity clearance curve. Representative samples (Table 6) were also analyzed for unchanged N-(3-[^18 F]fluoropropyl)spiroperidol.
The baboon blood total plasma radioactivity clearance curve following injection of NCA N-(3-[^18 F]fluoropropyl)spiroperidol is depicted in FIG. 1. The blood clearance was very rapid. The appearance of metabolites in the blood was also rapid (Table 6). At 10 min after injection 68% of plasma radioactivity was due to unchanged N-(3-[^18 F]fluoropropyl)spiroperidol.
*Plasma samples were extracted with MeOH--0.4M HClO4

[4] = system: dopamine receptors; test: PET baboon studies: brain kinetics in striatum and cerebellum
Text: A young adult (11 kg) female baboon (Papio anubis) was anesthetized initially with ketamine and subsequently maintained under halothane/nitrous oxide anesthesia for two PETT studies as described in the Arnett et al. paper referenced in Example 7. […] PET scans were made continually for 4 hr from the time of radioisotope injection. Regions of interest corresponding to the striata and cerebellum were selected.

[5] = system: dopamine receptors; test: Affinity for dopamine receptors; assay type: binding
[6] = system: dopamine receptors; test: Uptake in the brain and radiation burden (general statement); conditions: in vivo
[7] = (+)-butaclamol pretreatment, 5 min
[8] = (+)-butaclamol pretreatment, 60 min
[9] = (+)-butaclamol pretreatment, 120 min
[10] = (-)-butaclamol pretreatment, 5 min
[11] = (-)-butaclamol pretreatment, 60 min
[12] = (-)-butaclamol pretreatment, 120 min
[13] = mouse brain, 2X MeOH-HClO4 (washed again)
[14] = mouse brain, MeOH-HClO4 extraction, no further washings
[15] = baboon plasma, 0.67 min after injection
[16] = baboon plasma, 4.0 min after injection
[17] = baboon plasma, 10 min after injection
[18] = baboon plasma, 30 min after injection
[19] = baboon plasma, 120 min after injection
[20] = baboon, (-)-butaclamol pretreatment

Compound: O=C(CCCN1CCC2(CC1)C(=O)N(CCC[18F])CN2c1ccccc1)c1ccc(F)cc1 [N-(3-[^18 F]fluoropropyl)spiroperidol]
- Cerebellum, % injected dose [1, 7]: 0.11 (0.08-0.14) %/organ
- Striatum, % injected dose [1, 7]: 0.051 %/organ
- Whole Brain, % injected dose [1, 7]: 0.79 (0.57-1.00) %/organ
- Cerebellum, % injected dose [1, 8]: 0.019 (0.013-0.025) %/organ
- Striatum, % injected dose [1, 8]: 0.013 (0.009-0.018) %/organ
- Whole Brain, % injected dose [1, 8]: 0.16 %/organ
- Cerebellum, % injected dose [1, 9]: 0.012 %/organ
- Striatum, % injected dose [1, 9]: 0.010 %/organ
- Whole Brain, % injected dose [1, 9]: 0.097 %/organ
- Cerebellum, % injected dose [1, 10]: 0.24 (0.13-0.45) %/organ
- Striatum, % injected dose [1, 10]: 0.084 (0.068-0.099) %/organ
- Whole Brain, % injected dose [1, 10]: 1.1 (0.9-1.4) %/organ
- Cerebellum, % injected dose [1, 11]: 0.040 (0.032-0.048) %/organ
- Striatum, % injected dose [1, 11]: 0.089 %/organ
- Whole Brain, % injected dose [1, 11]: 0.67 (0.59-0.77) %/organ
- Cerebellum, % injected dose [1, 12]: 0.028 (0.023-0.032) %/organ
- Striatum, % injected dose [1, 12]: 0.14 (0.11-0.17) %/organ
- Whole Brain, % injected dose [1, 12]: 0.56 (0.44-0.63) %/organ
- Percent Recovery of Total ^18 F Applied to C-18 Sep-Pak, H2O Eluate [2, 13]: 11%
- Percent Recovery of Total ^18 F Applied to C-18 Sep-Pak, MeOH Eluate [2, 13]: 81%
- Percent Recovery of Total ^18 F Applied to C-18 Sep-Pak, NaOH Eluate [2, 13]: 3.1%
- Percent of ^18 F in MeOH as N-(3-[^18 F]fluoropropyl)spiroperidol [2, 13]: 94%
- Percent Recovery of Total ^18 F Applied to C-18 Sep-Pak, MeOH Eluate ([2]; mouse brain, MeOH Alone): 65%
- Percent of ^18 F in MeOH as N-(3-[^18 F]fluoropropyl)spiroperidol ([2]; mouse brain, MeOH Alone): 97%
- Percent Recovery of Total ^18 F Applied to C-18 Sep-Pak, H2O Eluate [2, 14]: 4.2%
- Percent Recovery of Total ^18 F Applied to C-18 Sep-Pak, MeOH Eluate [2, 14]: 73%
- Percent Recovery of Total ^18 F Applied to C-18 Sep-Pak, NaOH Eluate [2, 14]: 1.3%
- Percent of ^18 F in MeOH as N-(3-[^18 F]fluoropropyl)spiroperidol [2, 14]: 94%
- Stability to metabolic transformation in the central nervous system ([2]; mouse brain, one hour): very stable to metabolic transformation in the central nervous system
- remaining at 1 h ([2]; 2X MeOH-HClO4 (washed again)): 76%
- remaining at 1 h ([2]; MeOH Alone): 62%
- remaining at 1 h ([2]; MeOH-HClO4 extraction, no further washings): 69%
- Blood / total plasma radioactivity clearance ([3]; baboon): very rapid; also recorded: rapid
- Total recovery of ^18 F applied to C-18 Sep-pak ([3]; baboon plasma samples): 90-103%
- % Recovery of Total ^18 F Applied to C-18 Sep-Pak, H2O Eluate [3, 15]: 8%
- % Recovery of Total ^18 F Applied to C-18 Sep-Pak, MeOH Eluate [3, 15]: 93%
- % Recovery of Total ^18 F Applied to C-18 Sep-Pak, NaOH Eluate [3, 15]: 2%
- % of ^18 F in MeOH as N-(3-[^18 F]fluoropropyl)spiroperidol [3, 15]: 98%
- % Recovery of Total ^18 F Applied to C-18 Sep-Pak, H2O Eluate [3, 16]: 10%
- % Recovery of Total ^18 F Applied to C-18 Sep-Pak, MeOH Eluate [3, 16]: 83%
- % Recovery of Total ^18 F Applied to C-18 Sep-Pak, NaOH Eluate [3, 16]: 4%
- % of ^18 F in MeOH as N-(3-[^18 F]fluoropropyl)spiroperidol [3, 16]: 99%
- % Recovery of Total ^18 F Applied to C-18 Sep-Pak, H2O Eluate [3, 17]: 17%
- % Recovery of Total ^18 F Applied to C-18 Sep-Pak, MeOH Eluate [3, 17]: 71%
- % Recovery of Total ^18 F Applied to C-18 Sep-Pak, NaOH Eluate [3, 17]: 6%
- % of ^18 F in MeOH as N-(3-[^18 F]fluoropropyl)spiroperidol [3, 17]: 96%
- % Recovery of Total ^18 F Applied to C-18 Sep-Pak, H2O Eluate [3, 18]: 31%
- % Recovery of Total ^18 F Applied to C-18 Sep-Pak, MeOH Eluate [3, 18]: 45%
- % Recovery of Total ^18 F Applied to C-18 Sep-Pak, NaOH Eluate [3, 18]: 14%
- % of ^18 F in MeOH as N-(3-[^18 F]fluoropropyl)spiroperidol [3, 18]: 90%
- % Recovery of Total ^18 F Applied to C-18 Sep-Pak, H2O Eluate [3, 19]: 49%
- % Recovery of Total ^18 F Applied to C-18 Sep-Pak, MeOH Eluate [3, 19]: 30%
- % Recovery of Total ^18 F Applied to C-18 Sep-Pak, NaOH Eluate [3, 19]: 18%
- % of ^18 F in MeOH as N-(3-[^18 F]fluoropropyl)spiroperidol [3, 19]: 74%
- Appearance of metabolites in the blood ([3]; in vivo): rapid
- remaining at 40 s ([3]; in vivo, iv, baboon plasma, 0.67 min after injection, read-out: % of Unchanged N-(3-[^18 F]fluoropropyl)spiroperidol): 91%
- remaining at 4 min ([3]; in vivo, iv, baboon plasma, 4.0 min after injection, read-out: % of Unchanged N-(3-[^18 F]fluoropropyl)spiroperidol): 82%
- remaining at 10 min ([3]; in vivo, iv, baboon plasma, 10 min after injection, read-out: % of Unchanged N-(3-[^18 F]fluoropropyl)spiroperidol): 68%
- remaining at 0.5 h ([3]; in vivo, iv, baboon plasma, 30 min after injection, read-out: % of Unchanged N-(3-[^18 F]fluoropropyl)spiroperidol): 41%
- remaining at 2 h ([3]; in vivo, iv, baboon plasma, 120 min after injection, read-out: % of Unchanged N-(3-[^18 F]fluoropropyl)spiroperidol): 22%
- Striatal accumulation of radioactivity, blocking by (+)-butaclamol ([4]; (+)-butaclamol pretreatment, species not given): blocked stereoselectively by (+)-butaclamol
- Radioactivity in the cerebellum after first few minutes [4, 20]: declined rapidly in the cerebellum
- Radioactivity in the striatum after first few minutes [4, 20]: increasing for up to 4 hrs in the striatum
- Influx into striatum and cerebellum ([4]; baboon, (-)-butaclamol pretreatment, first few minutes): nearly equal for the first few minutes
- Affinity for dopamine receptors [5]: extremely high affinity for dopamine receptors
- Radiation burden [6]: reduced radiation burden
- Uptake and retention in the brain [6]: enhanced uptake and retention in the brain
